Test results reported in patent US20070128217A1 (priority 2003, published 2007).

Columns and labels:
[1] = test system: control sera (pooled serum of ten healthy LUMC hospital workers; commercial negative donor pooled serum from the Dutch bloodbank); format: binding, human; design: Binding of Control serum LUMC to linear peptides / Binding of Control serum Blood-bank to linear peptides / Binding of Control serum LUMC to looped peptides / Binding of Control Serum Blood-Bank to Looped peptides / Binding of Control serum LUMC to linear peptides of the protein M of SARS-CoV Urbani / Binding of Control serum Blood-bank to linear peptides of the protein M of SARS-CoV Urbani / Binding of Control serum LUMC to looped peptides of the protein M of SARS-CoV Urbani / Binding of Control Serum Blood-Bank to Looped peptides of the protein M of SARS-CoV Urbani: unit not given here
[2] = test system: antibodies in sera from SARS patients (sera 1a, 1b, 2, 6, 37, 62, London, SARS-yellow, SARS-green); format: binding, human; design: Binding of serum 6 to linear peptides of protein X1 of SARS-CoV Urbani / Binding of serum 37 to linear peptides of protein X1 of SARS-CoV Urbani / Binding of serum 6 to looped/cyclic peptide (PEPSCAN-ELISA) / Binding of serum 37 to looped/cyclic peptide (PEPSCAN-ELISA) / Binding of serum 37 to looped/cyclic peptides of protein X1 of SARS-CoV Urbani / Binding of serum 6 to linear peptides of protein X2 / Binding of serum 37 to linear peptides of protein X2 / Binding of serum 37 to looped/cyclic peptides of protein X2 of SARS-CoV Urbani / Binding of serum 6 to linear peptides of protein M of SARS-CoV Urbani / Binding of serum 37 to linear peptides of protein M of SARS-CoV Urbani / Binding of serum 6 to looped/cyclic peptides of protein M of SARS-CoV Urbani / Binding of serum 37 to looped/cyclic peptides of protein M of SARS-CoV Urbani / Binding of serum 6 to linear peptides of protein X3 of SARS-CoV Urbani / Binding of serum 37 to linear peptides of protein X3 of SARS-CoV Urbani / Binding of serum 37 to looped/cyclic peptides of protein X3 of SARS-CoV Urbani / Binding of serum 6 to linear peptides of protein X4 of SARS-CoV Urbani / Binding of serum 37 to linear peptides of protein X4 of SARS-CoV Urbani / Binding of serum 37 to looped/cyclic peptides of protein X4 of SARS-CoV Urbani / Binding of serum 6 to linear peptides of protein X5 of SARS-CoV Urbani / Binding of serum 37 to linear peptides of protein X5 of SARS-CoV Urbani / Binding of serum 37 to looped/cyclic peptides of protein X5 of SARS-CoV Urbani / Binding of serum 6 to linear peptides of protein N of SARS-CoV Urbani / Binding of serum 37 to linear peptides of protein N of SARS-CoV Urbani / Binding of serum 6 to linear peptide (PEPSCAN-ELISA) / Binding of serum 1a to looped/cyclic peptides of protein N of SARS-CoV Urbani / Binding of serum 1b to looped/cyclic peptides of protein N of SARS-CoV Urbani / Binding of serum 2 to looped/cyclic peptides of protein N of SARS-CoV Urbani / Binding of serum 6 to looped/cyclic peptides of protein N of SARS-CoV Urbani / Binding of serum 37 to looped/cyclic peptides of protein N of SARS-CoV Urbani / Binding of serum 62 to looped/cyclic peptides of protein N of SARS-CoV Urbani / Binding of serum London to looped/cyclic peptides of protein N of SARS-CoV Urbani / Binding of serum SARS-green to looped/cyclic peptides of protein N of SARS-CoV Urbani: unit not given here
[3] = test system: rabbit serum obtained by immunizing a rabbit with the SARS-CoV strain Frankfurt 1; format: binding; design: Binding of a rabbit serum to linear peptides / Binding of a rabbit serum to looped peptides / Rabbit serum linear peptides / Rabbit serum looped peptides / Binding of a rabbit serum to linear peptides of protein N of SARS-CoV Urbani (Rabbit serum linear peptides) / Binding of a rabbit serum to looped/cyclic peptides of protein N of SARS-CoV Urbani (Rabbit serum looped peptides): unit not given here

## TIPLQASLPFGWLVI
[1]
  Binding of Control Serum Blood-Bank to Looped peptides: 0.7
  Binding of Control serum Blood-bank to linear peptides: 0.8
  Binding of Control serum LUMC to linear peptides: 0.7
  Binding of Control serum LUMC to looped peptides: 0.7
[2]
  Binding of serum 1a to linear peptides of protein X1 of SARS-CoV Urbani: 0.8
  Binding of serum 1a to looped/cyclic peptide (PEPSCAN-ELISA): 0.6
  Binding of serum 1b to linear peptides of protein X1 of SARS-CoV Urbani: 0.5
  Binding of serum 1b to looped/cyclic peptide (PEPSCAN-ELISA): 0.4
  Binding of serum 2 to linear peptides of protein X1 of SARS-CoV Urbani: 0.6
  Binding of serum 2 to looped/cyclic peptide (PEPSCAN-ELISA): 0.5
  Binding of serum 6 to linear peptides of protein X1 of SARS-CoV Urbani: 0.5
  Binding of serum 6 to looped/cyclic peptide (PEPSCAN-ELISA): 0.4
  Binding of serum 37 to linear peptides of protein X1 of SARS-CoV Urbani: 0.7
  Binding of serum 37 to looped/cyclic peptide (PEPSCAN-ELISA): 0.6
  Binding of serum 62 to linear peptides of protein X1 of SARS-CoV Urbani: 0.8
  Binding of serum 62 to looped/cyclic peptide (PEPSCAN-ELISA): 0.7
  Binding of serum London to linear peptides of protein X1 of SARS-CoV Urbani: 0.3
  Binding of serum London to looped/cyclic peptide (PEPSCAN-ELISA): 0.2
  Binding of serum SARS-green to linear peptides of protein X1 of SARS-CoV Urbani: 0.4
  Binding of serum SARS-green to looped/cyclic peptide (PEPSCAN-ELISA): 0.4
  Binding of serum SARS-yellow to linear peptides of protein X1 of SARS-CoV Urbani: 0.4
  Binding of serum SARS-yellow to looped/cyclic peptide (PEPSCAN-ELISA): 0.5
[3]
  Binding of a rabbit serum to linear peptides: 0.1
  Binding of a rabbit serum to looped peptides: 0.5

## TIVVTEGDGISTPKL
[1]
  Binding of Control Serum Blood-Bank to Looped peptides: 0.6
  Binding of Control serum Blood-bank to linear peptides: 0.5
  Binding of Control serum LUMC to linear peptides: 0.5
  Binding of Control serum LUMC to looped peptides: 0.7
[2]
  Binding of serum 1a to linear peptides of protein X1 of SARS-CoV Urbani: 0.6
  Binding of serum 1a to looped/cyclic peptides of protein X1 of SARS-CoV Urbani: 0.7
  Binding of serum 1b to linear peptides of protein X1 of SARS-CoV Urbani: 0.5
  Binding of serum 1b to looped/cyclic peptides of protein X1 of SARS-CoV Urbani: 0.7
  Binding of serum 2 to linear peptides of protein X1 of SARS-CoV Urbani: 0.5
  Binding of serum 2 to looped/cyclic peptides of protein X1 of SARS-CoV Urbani: 0.5
  Binding of serum 6 to linear peptides of protein X1 of SARS-CoV Urbani: 0.6
  Binding of serum 6 to looped/cyclic peptides of protein X1 of SARS-CoV Urbani: 0.4
  Binding of serum 37 to linear peptides of protein X1 of SARS-CoV Urbani: 0.6
  Binding of serum 37 to looped/cyclic peptides of protein X1 of SARS-CoV Urbani: 0.7
  Binding of serum 62 to linear peptides of protein X1 of SARS-CoV Urbani: 0.5
  Binding of serum 62 to looped/cyclic peptides of protein X1 of SARS-CoV Urbani: 0.6
  Binding of serum London to linear peptides of protein X1 of SARS-CoV Urbani: 0.3
  Binding of serum London to looped/cyclic peptides of protein X1 of SARS-CoV Urbani: 0.2
  Binding of serum SARS-green to linear peptides of protein X1 of SARS-CoV Urbani: 0.3
  Binding of serum SARS-green to looped/cyclic peptides of protein X1 of SARS-CoV Urbani: 0.6
  Binding of serum SARS-yellow to linear peptides of protein X1 of SARS-CoV Urbani: 0.3
  Binding of serum SARS-yellow to looped/cyclic peptides of protein X1 of SARS-CoV Urbani: 0.5
[3]
  Binding of a rabbit serum to linear peptides: 0.1
  Binding of a rabbit serum to looped peptides: 0.5

## TPNVTINCQDPAGGA
[1]
  Binding of Control Serum Blood-Bank to Looped peptides: 0.3
  Binding of Control serum Blood-bank to linear peptides: 0.6
  Binding of Control serum LUMC to linear peptides: 0.5
  Binding of Control serum LUMC to looped peptides: 0.2
[2]
  Binding of serum 1a to linear peptides of protein X5 of SARS-CoV Urbani: 0.8
  Binding of serum 1a to looped/cyclic peptides of protein X5 of SARS-CoV Urbani: 0.4
  Binding of serum 1b to linear peptides of protein X5 of SARS-CoV Urbani: 0.4
  Binding of serum 2 to linear peptides of protein X5 of SARS-CoV Urbani: 0.4
  Binding of serum 2 to looped/cyclic peptides of protein X5 of SARS-CoV Urbani: 0.3
  Binding of serum 6 to linear peptides of protein X5 of SARS-CoV Urbani: 0.1
  Binding of serum 6 to looped/cyclic peptides of protein X5 of SARS-CoV Urbani: 0.1
  Binding of serum 37 to linear peptides of protein X5 of SARS-CoV Urbani: 0.8
  Binding of serum 37 to looped/cyclic peptides of protein X5 of SARS-CoV Urbani: 0.4
  Binding of serum 62 to linear peptides of protein X5 of SARS-CoV Urbani: 0.5
  Binding of serum 62 to looped/cyclic peptides of protein X5 of SARS-CoV Urbani: 0.2
  Binding of serum London to linear peptides of protein X5 of SARS-CoV Urbani: 0.6
  Binding of serum London to looped/cyclic peptides of protein X5 of SARS-CoV Urbani: 0.1
  Binding of serum SARS-green to linear peptides of protein X5 of SARS-CoV Urbani: 0.4
  Binding of serum SARS-green to looped/cyclic peptides of protein X5 of SARS-CoV Urbani: 0.2
  Binding of serum SARS-yellow to linear peptides of protein X5 of SARS-CoV Urbani: 0.0
  Binding of serum SARS-yellow to looped/cyclic peptides of protein X5 of SARS-CoV Urbani: 0.2
[3]
  Rabbit serum linear peptides: 0.0
  Rabbit serum looped peptides: 0.1

## TRGNTYSTAWLCALG
[1]
  Binding of Control Serum Blood-Bank to Looped peptides: 0.4
  Binding of Control serum Blood-bank to linear peptides: 0.7
  Binding of Control serum LUMC to linear peptides: 0.6
  Binding of Control serum LUMC to looped peptides: 0.6
[2]
  Binding of serum 1a to linear peptides of protein X5 of SARS-CoV Urbani: 0.8
  Binding of serum 1a to looped/cyclic peptides of protein X5 of SARS-CoV Urbani: 0.4
  Binding of serum 1b to linear peptides of protein X5 of SARS-CoV Urbani: 0.6
  Binding of serum 1b to looped/cyclic peptides of protein X5 of SARS-CoV Urbani: 0.1
  Binding of serum 2 to linear peptides of protein X5 of SARS-CoV Urbani: 0.6
  Binding of serum 2 to looped/cyclic peptides of protein X5 of SARS-CoV Urbani: 0.4
  Binding of serum 6 to linear peptides of protein X5 of SARS-CoV Urbani: 0.6
  Binding of serum 6 to looped/cyclic peptides of protein X5 of SARS-CoV Urbani: 0.3
  Binding of serum 37 to linear peptides of protein X5 of SARS-CoV Urbani: 0.8
  Binding of serum 37 to looped/cyclic peptides of protein X5 of SARS-CoV Urbani: 0.4
  Binding of serum 62 to linear peptides of protein X5 of SARS-CoV Urbani: 0.8
  Binding of serum 62 to looped/cyclic peptides of protein X5 of SARS-CoV Urbani: 0.6
  Binding of serum London to linear peptides of protein X5 of SARS-CoV Urbani: 0.7
  Binding of serum London to looped/cyclic peptides of protein X5 of SARS-CoV Urbani: 0.2
  Binding of serum SARS-green to linear peptides of protein X5 of SARS-CoV Urbani: 0.6
  Binding of serum SARS-green to looped/cyclic peptides of protein X5 of SARS-CoV Urbani: 0.3
  Binding of serum SARS-yellow to linear peptides of protein X5 of SARS-CoV Urbani: 0.5
  Binding of serum SARS-yellow to looped/cyclic peptides of protein X5 of SARS-CoV Urbani: 0.3
[3]
  Rabbit serum linear peptides: 0.7
  Rabbit serum looped peptides: 0.0

## TRHTYQLRARSVSPK
[1]
  Binding of Control Serum Blood-Bank to Looped peptides: 0.7
  Binding of Control serum Blood-bank to linear peptides: 0.9
  Binding of Control serum LUMC to linear peptides: 0.9
  Binding of Control serum LUMC to looped peptides: 0.7
[2]
  Binding of serum 1a to linear peptides of protein X4 of SARS-CoV Urbani: 0.8
  Binding of serum 1a to looped/cyclic peptides of protein X4 of SARS-CoV Urbani: 0.8
  Binding of serum 1b to linear peptides of protein X4 of SARS-CoV Urbani: 0.7
  Binding of serum 1b to looped/cyclic peptides of protein X4 of SARS-CoV Urbani: 0.4
  Binding of serum 2 to linear peptides of protein X4 of SARS-CoV Urbani: 0.7
  Binding of serum 2 to looped/cyclic peptides of protein X4 of SARS-CoV Urbani: 0.8
  Binding of serum 6 to linear peptides of protein X4 of SARS-CoV Urbani: 1.3
  Binding of serum 6 to looped/cyclic peptides of protein X4 of SARS-CoV Urbani: 0.9
  Binding of serum 37 to linear peptides of protein X4 of SARS-CoV Urbani: 1.0
  Binding of serum 37 to looped/cyclic peptides of protein X4 of SARS-CoV Urbani: 0.7
  Binding of serum 62 to linear peptides of protein X4 of SARS-CoV Urbani: 0.9
  Binding of serum 62 to looped/cyclic peptides of protein X4 of SARS-CoV Urbani: 0.6
  Binding of serum London to linear peptides of protein X4 of SARS-CoV Urbani: 0.8
  Binding of serum London to looped/cyclic peptides of protein X4 of SARS-CoV Urbani: 0.4
  Binding of serum SARS-green to linear peptides of protein X4 of SARS-CoV Urbani: 0.6
  Binding of serum SARS-green to looped/cyclic peptides of protein X4 of SARS-CoV Urbani: 0.7
  Binding of serum SARS-yellow to linear peptides of protein X4 of SARS-CoV Urbani: 0.9
  Binding of serum SARS-yellow to looped/cyclic peptides of protein X4 of SARS-CoV Urbani: 0.7
[3]
  Recognition of the peptide by the rabbit serum: recognized
